# From publication PMC11493442, “Sensory-Motor Neuropathy in Mfn2 T105M Knock-in Mice and Its Reversal by a Novel Piperine-Derived Mitofusin Activator” (The Journal of Pharmacology and Experimental Therapeutics, 2024)
# pEC50: −log10 of the molar value. Where two headings read alike, the source gives them in different places.
# Key:
# [1] = ref Dang et al., 2021 (cpd 5b); cited from earlier work
# [2] = ref Dang et al., cited from earlier work
# [3] = p.o. 50 mg/kg, ref Dang et al., cited from earlier work
# Plasma PK in rats = format: in vivo, rat; conditions: oral administration
# Experimental: Routine in vitro pharmacokinetic (PK) profiling of 8015 and its enantiomers (8015-P1 and 8015-P2) was performed at WuXi Apptec Co., Ltd. (Shanghai, China) using standard methods as described ([Dang et al., 2020], [2021]). In vivo PK profiling was performed by Frontage Laboratories (Exton PA, USA). The vehicle used for intravenous and oral PK studies was 12% sulfobutylether-β-cyclodextrin (SBE-β-CD; CyDex Pharmaceutical Inc., Lenexa KS, USA) in sterile water.
# Mfn2 null MEF cells = test: Mitochondrial elongation (fusogenicity, mitochondrial aspect ratio) in Mfn2 null MEFs; format: cell-based, mouse
# Experimental: Mitochondrial polarization based on tetramethyl rhodamine ester fluorescence and fusogenicity based on an increase in mitochondrial aspect ratio were measured in static confocal images of live cells using methods that we have extensively validated ([Franco et al., 2016], [2020]; [Rocha et al., 2018]; [Zhang et al., 2022]). As necessary, red, green, and blue brightness, or rarely contrast, were adjusted in individual confocal images prior to merging to enhance clarity. All adjustments were performed across the entire image.
# Mitochondrial elongation was assessed in Mfn2 null MEF cells after treatment with compounds at concentrations ranging from 0.5 nM–10 μM in DMSO for 14 h. Mitochondria were stained with MitoTracker Orange, and nuclei were costained with Hoechst before confocal microscope imaging; at least three independent experiments were performed. Mitochondrial aspect ratio (length/width) of at least 10 cells was measured for each experiment using National Institutes of Health ImageJ. […] Concentration-response curves were generated using a sigmoidal model in Prism 8 software. EC50 and Emax values and their variances were calculated from interpolated data of all replicate experiments in a series.
# Mfn2 T105M knock-in mice = test: CMT2A phenotype reversal in Mfn2 T105M knock-in mice; format: in vivo, mouse
# Experimental: The creation of mice with human CMT2A mutations MFN2 T105M and M376V CRISPR-engineered into the mouse Mfn2 gene has been reported, as was absence of a cardiac phenotype ([Franco et al., 2023]). Neuromuscular phenotyping was performed for the current studies (vide infra). Results of male and female mice were combined as there were no observed sex differences.
# Mfn2 T105M knock-in mice underwent evaluation at 10-week intervals to establish basal phenotype progression. 8015 or 8015-P2 treatment studies were performed after final baseline evaluations at 50 weeks of age. 8015 (transgenic MFN2 T105M model) or 8015-P2 (Mfn2 T105M knock-in model) were administered at doses of 50 mg/kg by oral gave once daily in the morning. Repeat phenotyping was performed after 4 and 8 weeks of treatment (transgenic model) or 6 weeks of treatment (knock-in model), after which the mice were killed by anesthesia overdose and tissue specimens obtained for histologic and ultrastructural studies, as described ([Franco et al., 2020]).
# Rotarod studies were performed on mice initially familiarized and trained on the Rotarod (Ugo Basile, Gemonio, VA, Italy;# 47650) at a speed of 5 rpm. For evaluation, the initial speed of 5 rpm accelerated to 40 rpm over 120 seconds and then maintained 40 rpm for a maximum of 180 seconds. For each trial, five tests were performed with at least 5 minutes rest between each test. No trends were observed from test 1 to test 5. In total, three trials were performed over sequential days to account for variabilities of the Rotarod test and between days. For each mouse, the latency (time to falling off) of replicate tests for each trial day were averaged, and results of the three independent trials were averaged to obtain a result for that condition (i.e., age, genotype, and/or drug treatment).
# Neuroelectrophysiologic recordings of hindlimb compound muscle action potentials (CMAP) were performed with a Viasys Healthcare Nicolet Biomedical instrument (Middleton, WI, USA Cat:# OL060954) using Viking Quest version 11.2 software. Nerve stimulation used 3.9 mV pulses of 0.002 milliseconds duration administered through a needle electrode placed at the proximal sciatic nerve through a posterior lumbar approach. Muscle depolarization was monitored using a loop electrode placed around the mid distal hindlimb, corresponding to the greatest girth of the tibialis and gastrocnemius muscles.
# An inverted grid suspension test was used to assess grip strength and coordination. Mice were placed on a grid, which was slowly inverted no higher than three feet above a padded surface; the time to falling off (latency) was recorded up to a maximum of 500 seconds. Each mouse underwent at least three independent studies on different days, and the longest latency time was used ([Aartsma-Rus and van Putten, 2014]). Obese mice (>150% of mean weight for that condition) were preemptively excluded.
# Mechanical sensitivity was measured using the von Frey test ([Martinov et al., 2013]). Mice were placed in a plexiglass chamber with a mesh grid floor and allowed to accommodate for at least 20 minutes or until exploratory behavior had ceased. The response to mechanical stimulation of hind paws used IITC Supertips filaments and an electronic von Frey anesthesiometer (IITC Life Science, Inc. Woodland Hills CA, USA). Filaments were applied to the footpads with a gradual increase in pressure until paw withdrawal was evoked; the maximum applied force was recorded. Paws of the left and right foot were alternately measured, with at least six measurements taken per animal and the results averaged for each mouse.
# Confocal imaging of gastrocnemius myocyte cross-sectional area (wheat germ agglutinin staining) and synapse density (α-bungarotoxin staining) was performed as described ([Franco et al., 2020]). […]
# [4] = Enterohepatic recirculation study: oral PK without and with activated charcoal; format: in vivo, mouse; conditions: mice; for AUC(0-t) / half-life: mouse, plasma, po, 5 mg/kg; for half-life: read-out: Plasma t1/2 (converted)
# Experimental: Enterohepatic recirculation (EHR) of 8015-P2 was tested by fasting mice overnight prior to administration of the compound (5 mg/kg) by oral gavage. 1 hour later, activated charcoal (2 g/kg) was administered by oral gavage to half of the mice; all mice were fed 2 hours after 8015-P2 dosing to induce gall bladder emptying. […] Areas under the concentration curves were calculated from the raw data; plasma half-times were estimated by linear regression of the second, slower elimination phase.
# [5] = test system: Mfn2 T105M KI DRG neurons; test: Mitochondrial motility in DRG neurons from Mfn2 T105M KI mice; format: cell-based, mouse; conditions: 100 nM for 48 hours
# Experimental: DRG neurons were isolated from ∼8-week-old Mfn2 T105M motor neuron transgenic mice, Mfn2 T105M KI mice, or Mfn1 fl/fl/Mfn2 fl/fl mice and cultured as described ([Dang et al., 2023]).
# (§1) Mitochondrial motility in neuronal processes of cultured reprogrammed human motor neurons ([Abernathy et al., 2017]; [Dang et al., 2023]), mouse DRG neurons transduced with adeno-Mito-DS-Red2, or axons of ex vivo mouse sciatic nerves stained with tetramethyl rhodamine ester was measured using time-lapse confocal microscopy on a Nikon Eclipse Ti2 confocal microscope as described ([Franco et al., 2016], [2020]; [Rocha et al., 2018]). Mouse DRG neurons and reprogrammed human CMT2A motor neurons were transduced with adeno-Mito-DS-Red2 to visualize mitochondria; ex vivo sciatic nerve mitochondria were labeled with tetramethyl rhodamine ester (200 nM for 30 minutes at 37° C). Time-lapse imaging was carried out using confocal microscopy on a Nikon Eclipse Ti2 confocal microscope with 1 frame captured every 5 seconds for 180 frames (15 minutes). Kymographs and quantitative data were generated using the ImageJ plug-in: Velocity_Measurement_Tool.
# [6] = test system: Mfn2 T105M KI mouse sciatic nerve axons; test: Ex vivo mitochondrial motility in sciatic nerve axons after oral dosing; conditions: 100 mg/kg by oral gavage
# Experimental: as §1
# mitofusins = test system: mitofusins; design: method as in Zhang et al., 2022; conditions: ref Zhang et al., 2022; cited from earlier work
# [7] = design: method as in earlier work; conditions: ref Piyachaturawat et al., 1983, Bhardwaj et al., 2002, Lee et al., 2005, McNamara et al.; cited from earlier work
# [8] = 50 mg/kg once daily by oral gavage for 6 weeks
# [9] = 5 mg/kg oral, with vs. without charcoal
# [10] = 5 mg/kg oral, activated charcoal by gavage 1 hour after dosing
smiles,measurement,setting,value
"O=C(N[C@H]1CC[C@H](O)CC1)C1CC1CCCc1ccccc1 (stereo partly drawn) [CPR1-B, N-(trans-4-hydroxycyclohexyl)-2-(3-phenylpropyl)cyclopropane-1-carboxamide]",Aqueous solubility (pH 7.4),[1],<10 uM
same,calc logP,[2]; 2021 (cpd 5b),3.09
same,Bioavailability,[3]; 2021 (cpd 5b),59%
O=C(NC1CC1CCCCc1ccccc1)C1CCC(O)CC1 (stereo not shown) [Compound 8015-P2],Waxing and waning of plasma levels,Plasma PK in rats,not observed
same,Mitofusin activator potency (in words),Mfn2 null MEF cells,subnanomolar potency
same,Comparative fusogenic potency of the two 8015 isomers,"Mfn2 null MEF cells; Mfn2-deficient mitochondria, n = 4 each",markedly more potent and effective than 8015-P1
same,pEC50,"Mfn2 null MEF cells; Mus musculus, MEF, 95% confidence limits 439 - 863PM, n = 4, read-out: EC50 as a fusogenic factor (fusion of Mfn2-deficient mitochondria)",9.21
same,Fold greater fusogenic potency versus comparators,Mfn2 null MEF cells; versus trans-MiM111 or CPR1-B / previously described mitofusin activators,~10 fold
same,"Motor neuron functional metrics (Rotarod latency, inverted grasp)",Mfn2 T105M knock-in mice; [8],normalized
same,Neuroelectrophysiological abnormality (CMAP amplitude),Mfn2 T105M knock-in mice; [8],normalized
same,Sensory neuron metric (von Frey foot pad mechanical sensitivity),Mfn2 T105M knock-in mice; [8],normalized
same,Gastrocnemius myocyte cross-sectional area,Mfn2 T105M knock-in mice; 6 weeks of administration,reversed
same,Neuromuscular synapse density,Mfn2 T105M knock-in mice; 6 weeks of administration,reversed
same,Proportion of tibialis nerve neurons with small axonal areas (lowest quartile),Mfn2 T105M knock-in mice; 6 weeks of administration,reversed
same,Decrease of AUClast by charcoal,[4]; [9],17%
same,Decrease of t1/2 by charcoal,[4]; [9],36%
same,Enterohepatic recirculation,[4]; oral,undergoes enterohepatic recirculation
same,AUC(0-t),[4]; [10],739 ng·h/mL
same,half-life,[4]; [10],1.21 h
same,AUC(0-t),"[4]; 5 mg/kg oral, without charcoal",887 ng·h/mL
same,half-life,"[4]; 5 mg/kg oral, without charcoal",1.88 h
same,Mitochondrial motility in DRG neuronal processes,[5],corrected
same,"Mitochondrial motility in sciatic nerve axons, ex vivo",[6],corrected mitochondrial dysmotility
O=C(NC1CC1CCCc1ccccc1)[C@H]1CC[C@H](O)CC1 (stereo partly shown) [Cpd 10],Mitofusin activator activity,mitofusins,functionally inactive
O=C(/C=C/C=C/c1ccc2c(c1)OCO2)N1CCCCC1 [piperine],Mitofusin activation potency (in words),mitofusins,approximately the same potency as phenylhexanamide compounds
same,Cytotoxicity,[7],can be cytotoxic at higher concentrations
"O=C(CCCCCc1ccccc1)N[C@H]1CC[C@H](O)CC1 [trans-MiM111, N-(trans-4-hydroxycyclohexyl)-6-phenylhexanamide]",calc logP,[2]; 2020 (cpd 13b),3.22
same,Bioavailability,[3]; 2020 (cpd 13b),61%
